Values joined by “and” are separate entries in the source; they are usually repeats but may differ in a detail not shown here. Equal entries are not always repeated. Marks after values point to notes of the source that are not given here.
Columns and labels:
mice [1] = experiment: Hyperkinesis induced by 5-oxytryptophan (negative symptoms of schizophrenia); type: in vivo; settings: for Number of shakings: mice, 5-oxytryptophan 300 mg/kg i.p.
Protocol: Studies have been conducted on white outbred male mice (18-24 g), in comparison with the olanzapine (Zyprexa) with intraperitoneal injection.
Phenotropil in all studied doses reduced hyperkinesia (head shakings): at doses of 100 mg/kg—by 88%, at 200 mg/kg—by 87%, and at 300 mg/kg—by 89%. […] Effect of Phenotropil on serotonergic system requires more detailed testing and studies of lower doses, since there is no reason to exclude neuroleptic activity in this test. Preventive or proactive (protective) use of lower doses may be appropriate also in dopaminergic pathology.

rats [2] = experiment: Training ability of immature under-trained rats in the CRPA test; type: in vivo; settings: for LP1 (training) / LP2 (at 24 h) / ΔLP: under-trained rats 30-35 days
Protocol: In studying immature animals, it must be considered that to generate CRPA it is required, as was established, to apply higher educational incentives (0.6 mA, 8 pulses vs 5 pulses at 0.45 mA in adult rats) with re-training (after 48 hours). Development of amnesia also requires a higher dose of scopolamine (1.3 mg/kg) in rat pups. […] Phenotropil has not only a psychomodulatory (Ψ-modulatory) activity but also a Ψ-operandmodulatory activity given that the mnemotropic effect is associated with the expression of specific proteins and genes involved in memory, attention and learning.

[3] = system: GABAA benzodiazepine (BDZ) receptors (cortex); experiment: Receptor binding ex vivo on rat brain membrane preparations; settings: 100 mg/kg single dose during scopolamine amnesia
Protocol: (§1) Studying the mechanisms of action of the preventive and curative effect of Phenotropil (100 mg/kg) with single and subchronic administration (for 7 days) in terms of receptor binding to dopamine (D1, D2, D3 in the striatum), serotonin (5-HT2—frontal cortex) glutamate (NMDA in the hippocampus), the GABAA benzodiazepine (BDZ—cortex) and acetylcholine (nACh—cortex) receptors was performed on membrane preparations isolated from various competent rat brain structures. The methods are well known and described. Baseline studies in normal state and during the anticholinergic scopolamine induced CRPA amnesia served as the comparison groups (Table 7.4 and 7.5).

[4] = system: acetylcholine nACh receptors (cortex); experiment: as above
Protocol: as §1

[5] = system: glutamate NMDA receptors (hippocampus); experiment: as above
Protocol: as §1

[6] = system: serotonin 5-HT2 receptors (frontal cortex); experiment: as above
Protocol: as §1

mice [7] = experiment: Benzedrine-induced stimulation of orientation-locomotor activity; type: in vivo
Description: In regard to influencing the effects of Benzedrine, Phenotropil also can provide, depending on the dose, the diametrically opposite activity when in combination with psychostimulants. This fact must be taken into account in combined use of various pharmacological agents.

MDA (malondialdehyde) = experiment: Plasma TBA-MDA under negative stress (Ns, Ds); type: in vivo, rats; settings: for km % vs experimental control (saline): Ds seven days + 200 mg/kg, listed as Phenotropil
[8] = Plasma electrolyte balance at course administration; type: in vivo; settings: rats
rats [9] = experiment: 14-day immobilization in antiorthostatic position (Ds), thymus, spleen, adrenal mass ratios Kt; type: in vivo; settings: Ds-conditions; for S/A: spleen/adrenals ratio (mg/100 g baseline body weight); for S/T: spleen/thymus ratio (mg/100 g baseline body weight); for T/A: thymus/adrenals ratio (mg/100 g baseline body weight)
[10] = 100 mg/kg after scopolamine-induced CRPA amnesia
[11] = nACh cortex, 100 mg/kg single dose during scopolamine amnesia
[12] = NMDA hippocampus, 100 mg/kg single dose during scopolamine amnesia
[13] = 5-HT2 frontal cortex, 100 mg/kg single dose during scopolamine amnesia
[14] = mice, Benzedrine 3 mg/kg + Phenotropil 50.0 mg/kg
[15] = mice, Benzedrine 3 mg/kg + Phenotropil 100.0 mg/kg
[16] = mice, Benzedrine 3 mg/kg + Phenotropil 300.0 mg/kg
[17] = mice, doses of 50 and 100 mg/kg (so in the source)
[18] = August rats, single Ns-exposure + 200 mg/kg
[19] = Wistar rats, single Ns-exposure + 200 mg/kg
[20] = 4-week administration 300 mg/kg

NC(=O)CN1CC(c2ccccc2)CC1=O (racemic) [Compound 1, (RS)-2-(2-oxo-4-phenylpyrrolidine-1-yl)acetamide]
reduction of hyperkinesia (head shakings) (mice [1]; 100 mg/kg): 88%
reduction of hyperkinesia (head shakings) (mice [1]; 200 mg/kg): 87%
reduction of hyperkinesia (head shakings) (mice [1]; 300 mg/kg): 89%
Number of shakings (mice [1]; 100 mg/kg): 1.4 ± 0.5
Number of shakings (mice [1]; 200 mg/kg): 1.5 ± 0.8
Number of shakings (mice [1]; 300 mg/kg): 1.2 ± 0.5
mnemotropic effect by ΔLP index versus saline treated control (rats [2]; 50 mg/kg): +133%
mnemotropic effect by ΔLP index versus saline treated control (rats [2]; 100 mg/kg): +504%
mnemotropic effect by ΔLP index versus saline treated control (rats [2]; 300 mg/kg): +696%
LP1 (training) (rats [2]; intragastric 50 mg/kg): 7.2 ± 2.1
LP2 (at 24 h) (rats [2]; intragastric 50 mg/kg): 18.4 ± 4.6
ΔLP (rats [2]; intragastric 50 mg/kg): 11.2 ± 3.4
LP1 (training) (rats [2]; intragastric 100 mg/kg): 7.2 ± 2.1
LP2 (at 24 h) (rats [2]; intragastric 100 mg/kg): 36.2 ± 4.6
ΔLP (rats [2]; intragastric 100 mg/kg): 29.0 ± 3.4
LP1 (training) (rats [2]; intragastric 300 mg/kg): 6.8 ± 1.2^
LP2 (at 24 h) (rats [2]; intragastric 300 mg/kg): 45.0 ± 7.5
ΔLP (rats [2]; intragastric 300 mg/kg): 38.2 ± 4.4
Bmax change vs saline CRPA control [3]: +4%
Kd change vs saline CRPA control [3]: −3.8%
Kd change vs scopolamine amnesia group [3]: +9.3%
decrease in density of nACh receptors vs scopolamine amnesia [4, 10]: 46%
Bmax change vs saline CRPA control [4, 11]: +6%
Bmax change vs scopolamine amnesia group [4, 11]: −46%
Kd change vs saline CRPA control [4, 11]: +39.5%
Kd change vs scopolamine amnesia group [4, 11]: +14.4%
decrease in density of NMDA receptors vs scopolamine amnesia [5, 10]: 12%
Bmax change vs saline CRPA control [5, 12]: +69%
Bmax change vs scopolamine amnesia group [5, 12]: −12%
Kd change vs saline CRPA control [5, 12]: +18.4%
Kd change vs scopolamine amnesia group [5, 12]: +9.0%
Bmax, percentage relative to control ([6]; 5-HT2, subchronic 100 mg/kg/day, no pathology): −18%*
Bmax change vs saline CRPA control [6, 13]: +31%
Kd change vs saline CRPA control [6, 13]: +19.4%
Kd change vs scopolamine amnesia group [6, 13]: +3.0%
decrease of density (Bmax) of 5-HT2 receptors vs control ([6]; subchronic 100 mg/kg, no pathology): 18%
Number of pulses for 3 min. (mice [7]; [14]): 126.0 ± 12.4
Number of stand-ups for 3 min. (mice [7]; [14]): 15.9 ± 2.0
Number of pulses for 3 min. (mice [7]; [15]): 129.2 ± 14.2
Number of stand-ups for 3 min. (mice [7]; [15]): 24.2 ± 4.8
Number of pulses for 3 min. (mice [7]; [16]): 48.1 ± 9.4
Number of stand-ups for 3 min. (mice [7]; [16]): 12.1 ± 4.6
increase of orientation and exploratory behavior, horizontal component, vs control (mice [7]; [17]): 240.0%
increase of orientation and exploratory behavior, vertical component, vs control (mice [7]; [17]): 89.0%
reduction of psychostimulant effect of Benzedrine, horizontal component (mice [7]; single 300 mg/kg): ~42.9%
reduction of psychostimulant effect of Benzedrine, vertical component (mice [7]; single 300 mg/kg): 14.8%
Optical density of the samples vs control (MDA (malondialdehyde); August rats, 200 mg/kg single, no Ns): +188.4 * %
km % vs outbred group (MDA (malondialdehyde); August rats, 200 mg/kg, normal conditions): 0%
increase of plasma MDA concentration vs baseline control (MDA (malondialdehyde); August rats, exposure to Ns): 2.2 times
plasma MDA higher than with Phenotropil without Ns (MDA (malondialdehyde); August rats, exposure to Ns): 17.0%
MDA content vs control (MDA (malondialdehyde); [18]): +223.0 * %
Optical density of the samples vs control (MDA (malondialdehyde); [18]): +220.3 * %
km % vs outbred group (MDA (malondialdehyde); August rats, three-time Ns + 200 mg/kg): +27.8% *
Optical density of the samples vs control (MDA (malondialdehyde); Wistar rats, 200 mg/kg single, no Ns): +66.5 * %
km % vs outbred group (MDA (malondialdehyde); Wistar rats, 200 mg/kg, normal conditions): 0%
km % vs experimental control (saline) (MDA (malondialdehyde); Wistar rats, 200 mg/kg): −65.6% and −65.6 *** %
reduction of MDA level vs baseline control without stress (MDA (malondialdehyde); Wistar rats, exposure to Ns): 6.0%
MDA content vs control (MDA (malondialdehyde); [19]): −6.0 * %
Optical density of the samples vs control (MDA (malondialdehyde); [19]): −6.0 * %
km % vs outbred group (MDA (malondialdehyde); Wistar rats, three-time Ns + 200 mg/kg): −33.3% *
km % vs experimental control (saline) (MDA (malondialdehyde); outbred rats, 200 mg/kg): −73.0% and −73.0 *** %
increase of species reserve of stability (intra-species Kt) in acute Ns-state (MDA (malondialdehyde); rats, during treatment): 12.5%
activation in August relative to Wistar strain (MDA (malondialdehyde); single injection, no stress): 2.9 times
serum Ca ([8]; 4-week administration 50 mg/kg): 4.21 ± 0.23 mEq/l
serum K ([8]; 4-week administration 50 mg/kg): 3.15 ± 0.15 mEq/l
serum Na ([8]; 4-week administration 50 mg/kg): 127.3 ± 2.71 mEq/l
serum Ca [8, 20]: 4.69 ± 0.24 mEq/l
serum K [8, 20]: 3.44 ± 0.20 mEq/l
serum Na [8, 20]: 125.7 ± 3.43 mEq/l
S/A (rats [9]; 25 mg/kg): 7.6 ± 1.2
S/T (rats [9]; 25 mg/kg): 2.2 ± 0.1
T/A (rats [9]; 25 mg/kg): 5.5 ± 1.1
S/A (rats [9]; 50 mg/kg): 8.2 ± 1.2
S/T (rats [9]; 50 mg/kg): 1.6 ± 0.1
T/A (rats [9]; 50 mg/kg): 6.6 ± 1.1
S/A (rats [9]; 100 mg/kg): 8.8 ± 1.2
S/T (rats [9]; 100 mg/kg): 1.2 ± 0.2
T/A (rats [9]; 100 mg/kg): 5.5 ± 1.1

— patent US20140315972A1, “RS)-2-(2-oxo-4-phenylpyrrolidin-1-yl)acetamide compound having modulatory activity with a commensurate effect, pharmaceutical substance (variants) and its application, composition (variants) thereof” (priority 2011, published 2014)
